# From patent US4289776A, “Xanthine derivatives” (Hoechst Aktiengesellschaft, priority 1973, dated 1981)
# Read-outs that look alike come from different tables or passages of the source.
# Legend:
# Solubility = format: physicochemical; settings: for solubility: water, 25° C.
# human blood = assay: Fibrinolytic effect in vitro, Hanging-Clot-test; format: biochemical; settings: for Minimum concentration for partial lysis / Minimum concentration for complete lysis: human blood
# Experimental: This effect was measured by the Hanging-Clot-test according to K. N. von Kaulla ("Journ. med. Chem." vol. 8 (1965), page 164) in using human blood. The incubation time was 24 or 48 hours.
# [1] = system: bronchospasm against histamine; assay: Broncholytic effect at the narcotized guinea-pig, bronchospasm by histamine; format: in vivo; settings: for change in vivo at 3 mg/kg: 3 mg/kg i.v.; for change in vivo at 10 mg/kg: 10 mg/kg i.v.; for Broncholytic effect against histamine compared with sample 8: guinea pig, in vivo
# Experimental: (§1) 2. Broncholytic effect at the narcotized guinea-pig
# (§2) This test was performed according to H. Konsett and R. Rossler ("Archiv exp. Path. Pharmak." vol. 195 (1940), page 71).
# [2] = system: bronchospasm against acrotonine; assay: Broncholytic effect at the narcotized guinea-pig, bronchospasm by acrotonine (so in the source); format: in vivo; settings: 2 min. i.p.
# Experimental: as §1, §2
# [3] = system: bronchospasm against acetylcholine; assay: Broncholytic effect at the narcotized guinea-pig, bronchospasm by acetylcholine; format: in vivo; settings: Cavia porcellus, iv, 2 min, 2 min. i.p.; for change in vivo at 3 mg/kg: 3 mg/kg i.v.; for change in vivo at 10 mg/kg: 10 mg/kg i.v.
# Experimental: as §1, §2
# [4] = Toxicity in the mouse (LD50); settings: in vivo
# Experimental: The toxicity was determined as LD50 --range or as LD50 according to Litchfield and Wilcoxon ("J. Pharmacol. exp. Ther." 97 (1949), page 399) in the mouse.
# cerebral blood perfusion = assay: Cerebral blood perfusion by fluvography at the cat (i.v.); format: in vivo
# Experimental: (§3) Animal tests were carried out with various oxoalkylxanthine derivatives, in which the toxicity in the mouse, the increase of cerebral and muscular blood perfusion at the cat and the fibrinolytic effect in vitro in the Hanging-Clot-test were measured. Furthermore the broncholytic effect of various compounds was tested.
# (§4) 1. Cerebral and muscular blood perfusion by fluvography
# (§5) These tests were performed at the cat according to K. Popendiker, I. Boksay and V. Bollmann ("Arzneimittel Forschung" vol. 21 (1971), page 1160).
# (§6) The values obtained in the mentioned test 1 are given as Δλ and as half-life values in Table 2 and the results of tests 2 to 5 are enumerated in Table 3. In Table 2 Δλ is the change of blood perfusion.
# muscular blood perfusion = assay: Muscular blood perfusion by fluvography at the cat (i.v.); format: in vivo
# Experimental: as §3, §4, §5, §6
# isolated trancheal chain = assay: Broncholytic effect at the isolated tracheal chain (isoprenaline reaction)
# Experimental: 3. Broncholytic effect at the isolated trancheal chain
# This test was performed according to J. C. Castillo and E. J. de Beer ("J. Pharm. Ther." vol. 90 (1947), page 104).
# [5] = Cavia porcellus, iv, 2 min, 2 min. i.p., sample in propanediol
# [6] = 10 mg/kg i.v., sample in propanediol, sample 1: Longtime effect (footnote 1)
# [7] = ip, read-out: Toxicity (LD50-range or LD50)
# [8] = Cavia porcellus, iv, 2 min, 2 min. i.p.
# [9] = 2 mg/kg i.v. vs sample 8 at 5 mg/kg
Solubility in dimethylformamide (Solubility),Compound,Solubility in dimethyl sulphoxide (Solubility),Solubility in ethanol (Solubility),Fibrinolytic effect relative to comparison sample 8 (human blood),"LD50 [4, 7] [mg/kg]","change in vivo at 3 mg/kg [1, 8] [%]","change in vivo at 10 mg/kg [1, 8] [%]",Change of the bronchospasm in % against acrotonine ([2]; 3 mg/kg i.v.) [%],Change of the bronchospasm in % against acrotonine ([2]; 10 mg/kg i.v.) [%],Cerebral blood perfusion half-life (cerebral blood perfusion; 1 mg/kg i.v.) [min],Cerebral blood perfusion Δλ (change of blood perfusion) (cerebral blood perfusion; 1 mg/kg i.v.),Cerebral blood perfusion half-life (cerebral blood perfusion; 5 mg/kg i.v.) [min],Cerebral blood perfusion relative to comparison sample 8 (cerebral blood perfusion; 5 mg/kg i.v.),Cerebral blood perfusion Δλ (change of blood perfusion) (cerebral blood perfusion; 5 mg/kg i.v.),change in vivo at 10 mg/kg [3] [%],Muscular blood perfusion Δλ (change of blood perfusion) (muscular blood perfusion; 1 mg/kg i.v.),Muscular blood perfusion Δλ (change of blood perfusion) (muscular blood perfusion; 5 mg/kg i.v.),Cerebral blood perfusion half-life (cerebral blood perfusion; 2 mg/kg i.v.) [min],Cerebral blood perfusion Δλ (change of blood perfusion) (cerebral blood perfusion; 2 mg/kg i.v.),Muscular blood perfusion Δλ (change of blood perfusion) (muscular blood perfusion; 2 mg/kg i.v.),also measured
over 10%,"CCCCCCn1cnc2c1c(=O)n(CCCCC(C)=O)c(=O)n2C [Example 2, 1-(5-Oxohexyl)-3-methyl-7-n-hexyl-xanthine]",over 10%,over 10%,–,–,–,–,–,–,–,–,–,–,–,–,–,–,–,–,–,Solubility in water (in words) (Solubility): only sparingly soluble in water
over 10%,"CC(=O)CCCCn1c(=O)c2c(ncn2CC(C)C)n(C)c1=O [Example 3, 1-(5-oxohexyl)-3-methyl7-isobutyl-xanthine]",over 10%,over 10%,–,–,–,–,–,–,–,–,–,–,–,–,–,–,–,–,–,–
–,"CC(=O)CCCCn1cnc2c1c(=O)n(CC(C)C)c(=O)n2C [Sample 2, 1-isobutyl-3-methyl-7-(5-oxohexyl)-xanthine]",–,–,–,250 to 500,-80,-73,-20,-47,1.0,+1.85,14.3,about four times stronger,+3.45,-29,0,+0.05,–,–,–,Half-life (cerebral) relative to comparison sample 8 (cerebral blood perfusion; 5 mg/kg i.v.): more than five times longer; Cerebral blood perfusion compared with sample 8 (in words) (cerebral blood perfusion; i.v.): stronger and longer cerebral blood perfusion; Muscular blood perfusion half-life (muscular blood perfusion; 5 mg/kg i.v.): 0.60 min
–,"CCCCCCn1c(=O)c2c(ncn2CCCCC(C)=O)n(C)c1=O [Sample 3, I-(n-hexyl)-3-methyl-7-(5-oxohexyl)-xanthine]",–,–,–,250 to 500,-52,-90,-50,-100,0.4,+0.97,–,–,–,-85,-0.05,–,7.0,+1.45,0,Broncholytic effect against histamine compared with sample 8 [1]: improved broncholytic effect against histamine; Cerebral blood perfusion relative to comparison sample 8 (cerebral blood perfusion; [9]): about two times as strong; Half-life (cerebral) relative to comparison sample 8 (cerebral blood perfusion; [9]): about three times as long; Muscular blood perfusion half-life (muscular blood perfusion; 1 mg/kg i.v.): 3.30 min
–,"CCCn1cnc2c1c(=O)n(CCCCC(C)=O)c(=O)n2C [Sample 4, 1-(5-Oxohexyl)-3-methyl-7-propyl-xanthine]",over 10%,over 10%,two times as strong,–,-75,-86,-83,-93,4.0,+4.33,14.7,–,+13.00,-75,+0.13,+0.08,5.8,+6.33,+0.07,"Inhibition of isoprenaline reaction in % (isolated trancheal chain; concentration 3 × 10^-5): 94%; Inhibition of isoprenaline reaction in % (isolated trancheal chain; concentration 3 × 10^-6): 2%; Inhibition of isoprenaline reaction in % (isolated trancheal chain; concentration 10^-4): 100%; Inhibition of isoprenaline reaction in % (isolated trancheal chain; concentration 10^-5): 20%; Minimum concentration for complete lysis (human blood; 24 hours incubation): 50 mmol; Minimum concentration for complete lysis (human blood; 48 hours incubation (bracket)): 25 mmol; solubility (Solubility): ~32 mg/mL; Broncholytic effect against histamine compared with sample 8 [1]: improved broncholytic effect against histamine; Cerebral blood perfusion compared with sample 8 (in words) (cerebral blood perfusion; i.v.): longer cerebral blood perfusion; Cerebral blood perfusion relative to comparison sample 8 (cerebral blood perfusion; i.v., all dose values, corresponding dosages): more than 10 times; change in vivo at 3 mg/kg [3]: -40%; Muscular blood perfusion half-life (muscular blood perfusion; 1 mg/kg i.v.): 3.70 min; Muscular blood perfusion half-life (muscular blood perfusion; 2 mg/kg i.v.): 0.80 min; Muscular blood perfusion half-life (muscular blood perfusion; 5 mg/kg i.v.): 3.70 min; Muscular blood perfusion compared with sample 8 (in words) (muscular blood perfusion; i.v., corresponding dosages): stronger muscular blood perfusion; LD50 ([4]; iv, read-out: Toxicity (LD50)): 107 mg/kg; LD50 ([4]; po, per os, read-out: Toxicity (LD50)): 860 mg/kg"
–,"CCCCn1cnc2c1c(=O)n(CCCCC(C)=O)c(=O)n2C [Sample 5, 1-(5-Oxohexyl)-3-methyl-7-(n-butyl)-xanthine]",–,–,–,250 to 500,–,-69,–,-100,1.3,+2.50,3.0,about three times higher,+2.40,-100,0,0,1.3,+2.55,0,"change in vivo at 5 mg/kg ([1]; Cavia porcellus, iv, 2 min, 5 mg/kg i.v., 2 min. i.p.): -42%; Change of the bronchospasm in % against acrotonine ([2]; 5 mg/kg i.v.): -70%; Cerebral blood perfusion relative to comparison sample 8 (cerebral blood perfusion; 1 mg/kg i.v.): nearly six times higher; change in vivo at 5 mg/kg ([3]; 5 mg/kg i.v.): -100%"
–,"CCCCCCCCCCn1cnc2c1c(=O)n(CCCCC(C)=O)c(=O)n2C [Sample 6, 1-(5-oxohexyl)-3-methyl-7-(n-decyl)-xanthine]",–,–,–,500,–,–,–,–,0.2,+1.40,–,–,–,–,0,–,–,–,–,"change in vivo at 10 mg/kg [1, 5]: -40%; Change of the bronchospasm in % against acrotonine [2, 6]: -50%; Cerebral blood perfusion half-life (cerebral blood perfusion; 3 mg/kg i.v.): 0.5 min; Cerebral blood perfusion Δλ (change of blood perfusion) (cerebral blood perfusion; 3 mg/kg i.v.): +2.8; change in vivo at 10 mg/kg ([3]; sample in propanediol): -50%; Muscular blood perfusion half-life (muscular blood perfusion; 3 mg/kg i.v.): 4.00 min; Muscular blood perfusion Δλ (change of blood perfusion) (muscular blood perfusion; 3 mg/kg i.v.): +0.30"
–,"CCn1cnc2c1c(=O)n(CCCCC(C)=O)c(=O)n2C [Sample 7, 1-(5-oxohexyl)-3-methyl-7-ethyl-xanthine]",–,–,two times as strong,250 to 500,-47,-90,-42,-81,1.5,+2.46,8.2,about nine times higher,+8.07,-96,+0.22,+0.20,5.0,+5.17,+0.10,Minimum concentration for partial lysis (human blood; 24 hours incubation): 50 mmol; Minimum concentration for partial lysis (human blood; 48 hours incubation (bracket)): 25 mmol; solubility (Solubility): ~20 mg/mL; Broncholytic effect against histamine compared with sample 8 [1]: improved broncholytic effect against histamine; Cerebral blood perfusion relative to comparison sample 8 (cerebral blood perfusion; 1 mg/kg i.v.): about five times higher; Half-life (cerebral) relative to comparison sample 8 (cerebral blood perfusion; 1 mg/kg i.v.): 1.5 times; Half-life (cerebral) relative to comparison sample 8 (cerebral blood perfusion; 5 mg/kg i.v.): more than three times longer; change in vivo at 3 mg/kg [3]: -28%; Muscular blood perfusion half-life (muscular blood perfusion; 1 mg/kg i.v.): 0.40 min; Muscular blood perfusion half-life (muscular blood perfusion; 2 mg/kg i.v.): 5.00 min; Muscular blood perfusion half-life (muscular blood perfusion; 5 mg/kg i.v.): 0.50 min

Compound,Solubility in dimethylformamide (Solubility),Solubility in dimethyl sulphoxide (Solubility),Solubility in ethanol (Solubility),Fibrinolytic effect relative to comparison sample 8 (human blood),"LD50 [4, 7] [mg/kg]","change in vivo at 3 mg/kg [1, 8] [%]","change in vivo at 10 mg/kg [1, 8] [%]",Change of the bronchospasm in % against acrotonine ([2]; 3 mg/kg i.v.) [%],Change of the bronchospasm in % against acrotonine ([2]; 10 mg/kg i.v.) [%],Cerebral blood perfusion half-life (cerebral blood perfusion; 1 mg/kg i.v.) [min],Cerebral blood perfusion Δλ (change of blood perfusion) (cerebral blood perfusion; 1 mg/kg i.v.),Cerebral blood perfusion half-life (cerebral blood perfusion; 5 mg/kg i.v.) [min],Cerebral blood perfusion relative to comparison sample 8 (cerebral blood perfusion; 5 mg/kg i.v.),Cerebral blood perfusion Δλ (change of blood perfusion) (cerebral blood perfusion; 5 mg/kg i.v.),change in vivo at 10 mg/kg [3] [%],Muscular blood perfusion Δλ (change of blood perfusion) (muscular blood perfusion; 1 mg/kg i.v.),Muscular blood perfusion Δλ (change of blood perfusion) (muscular blood perfusion; 5 mg/kg i.v.),Cerebral blood perfusion half-life (cerebral blood perfusion; 2 mg/kg i.v.) [min],Cerebral blood perfusion Δλ (change of blood perfusion) (cerebral blood perfusion; 2 mg/kg i.v.),Muscular blood perfusion Δλ (change of blood perfusion) (muscular blood perfusion; 2 mg/kg i.v.),also measured
"CCCn1c(=O)c2c(ncn2CCCCC(C)=O)n(C)c1=O [Sample 1, 1-n-Propyl-3-methyl-7-(5-oxohexyl)-xanthine]",over 10%,over 10%,over 10%,two times as strong,100 to 250,–,–,–,–,–,–,–,–,–,–,–,–,–,–,–,"Minimum concentration for partial lysis (human blood; 24 hours incubation): 40 mmol; Minimum concentration for complete lysis (human blood; 48 hours incubation (bracket)): 20 mmol; change in vivo at 3 mg/kg [1, 5]: -63%; change in vivo at 10 mg/kg [1, 5]: -73%; Change of the bronchospasm in % against acrotonine ([2]; 3 mg/kg i.v., sample in propanediol): -40%; Change of the bronchospasm in % against acrotonine [2, 6]: -82%; change in vivo at 3 mg/kg ([3]; sample in propanediol): -33%; change in vivo at 10 mg/kg ([3]; sample in propanediol): -55%"
